Assay results taken from patent USRE39071E1, “Anhydro-and isomer-a-21978c cyclic peptides” (Eli Lilly and Company, priority 1987, dated 2006).
In brackets after ≈: the same amount, converted by molar mass.

Experiments:
[1] = system: Staphylacoccus aureus V41 (penicillin-resistant strain); type: cell-based
Excerpt: (§1) Table I summarizes the minimal inhibitory concentrations (MIC's) at which the two illustrative compounds, anhydro-LY146032 and isomer-LY146032, inhibit certain organisms, as determined by standard agar-dilution assays.

[2] = system: Staphylacoccus aureus X400 (methicillin-resistant strain); type: cell-based
Excerpt: as §1

[3] = system: Staphylacoccus aureus XL1; type: cell-based
Excerpt: as §1

[4] = system: Staphylacoccus epidermidis 222; type: cell-based
Excerpt: as §1

[5] = system: Streptococcus faecalis 2041; type: cell-based
Excerpt: as §1

[6] = system: Streptococcus faecalis X66; type: cell-based
Excerpt: as §1

[7] = system: Streptococcus pyogenes C203; type: cell-based
Excerpt: as §1

[8] = system: Haemophilus influenzae CL (ampicillin-sensitive strain); assay: Agar-dilution MIC; type: cell-based
Excerpt: as §1

[9] = system: Haemophilus influenzae 76 (ampicillin-resistant strain); assay: Agar-dilution MIC; type: cell-based; design: unit not given beside the values
Excerpt: as §1

Staphylococcus aueus = assay: Experimental infection in mice, subcutaneous ED50; type: in vivo; settings: two doses
Method: (§2) The new derivatives of this invention have also shown in vivo antimicrobial activity against experimental bacterial infections. When two doses of test compound were administered to mice in experimental infections, the activity observed was measured as an ED50 value [effective dose in mg/kg to protect 50% of the test animals: see Warren Wick, et al., J. Bacteriol. 81, 233-235 (1961)].

Streptococcus pneumoniae = assay: Experimental infection in mice, subcutaneous ED50; type: in vivo; settings: two doses
Method: as §2

Streptococcus pyogenes = assay: Experimental infection in mice, subcutaneous ED50; type: in vivo; settings: two doses
Method: as §2

SMILES	MIC [1]	MIC [2]	MIC [3]	MIC [4]	MIC [5]	MIC [6]	MIC [7]	MIC [8]	MIC [9]	Subcutaneous ED50 (Staphylococcus aueus)	Subcutaneous ED50 (Streptococcus pneumoniae)	Subcutaneous ED50 (Streptococcus pyogenes)
CCCCCCCCCC(=O)N[C@@H](Cc1c[nH]c2ccccc12)C(=O)N[C@@H](CC(N)=O)C(=O)N[C@@H](CC(=O)O)C(=O)N[C@@H]1C(=O)NCC(=O)N[C@@H](CCCN)C(=O)N[C@@H](CC(=O)O)C(=O)N[C@H](C)C(=O)N[C@H]2CC(=O)N(CC(=O)N[C@H](CO)C(=O)N[C@@H]([C@H](C)CC(=O)O)C(=O)N[C@@H](CC(=O)c3ccccc3N)C(=O)O[C@@H]1C)C2=O [Anhydro-LY146032]	4 µg/mL (≈ 2.5 µM)	8 µg/mL (≈ 4.99 µM)	4 µg/mL (≈ 2.5 µM)	4 µg/mL (≈ 2.5 µM)	16 µg/mL (≈ 9.98 µM)	64 µg/mL (≈ 39.9 µM)	1 µg/mL (≈ 0.624 µM)	— (>128)	— (>128)	9.05 mg/kg	3.36 mg/kg	1.15 mg/kg
CCCCCCCCCC(=O)N[C@@H](Cc1c[nH]c2ccccc12)C(=O)N[C@@H](CC(N)=O)C(=O)N[C@@H](CC(=O)O)C(=O)N[C@@H]1C(=O)NCC(=O)N[C@@H](CCCN)C(=O)N[C@@H](CC(=O)O)C(=O)N[C@H](C)C(=O)N[C@H](C(=O)O)CC(=O)NCC(=O)N[C@H](CO)C(=O)N[C@@H]([C@H](C)CC(=O)O)C(=O)N[C@@H](CC(=O)c2ccccc2N)C(=O)O[C@@H]1C [Isomer-LY146032]	8 µg/mL (≈ 4.94 µM)	8 µg/mL (≈ 4.94 µM)	8 µg/mL (≈ 4.94 µM)	8 µg/mL (≈ 4.94 µM)	32 µg/mL (≈ 19.7 µM)	128 µg/mL (≈ 79 µM)	2 µg/mL (≈ 1.23 µM)	—^f (>128)	—^ (>128)	10.68 mg/kg	3.40 mg/kg	<1.25 mg/kg
